From PMC10350927 (Journal of Medicinal Chemistry, 2023)
Residue numbers refer to the chain shown, from its start. Marks after values point to notes of the source that are not given here.

How the values were obtained:
[1] = target: T1, hmSUCNR1 (N18^1.31E, K269^7.32N, and G84^EL1W) (Mus musculus, UniProt Q99MT6, G84W/K269N/N18E); experiment: cAMP assay, inhibition of succinate response at hmSUCNR1; assay type: cell-based; settings: read-out: hmSUCNR1 cAMP pIC50 (converted)
T1 construct: mGlu5 glutamate receptor signal peptide (N); expressed in transfected cells; the methods describe Flp-In T-REx 293
T1 sequence (Q99MT6 1-317 N18E/G84W/K269N): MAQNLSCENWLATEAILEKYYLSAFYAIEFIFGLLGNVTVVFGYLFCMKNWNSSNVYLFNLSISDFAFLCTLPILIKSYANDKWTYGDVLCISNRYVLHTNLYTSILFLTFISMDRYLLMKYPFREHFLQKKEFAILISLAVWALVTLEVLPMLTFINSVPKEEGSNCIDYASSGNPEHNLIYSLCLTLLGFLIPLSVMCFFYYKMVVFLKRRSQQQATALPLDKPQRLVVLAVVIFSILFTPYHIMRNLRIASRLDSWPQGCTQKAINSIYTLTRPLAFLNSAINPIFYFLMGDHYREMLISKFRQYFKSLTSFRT

[2] = target: T2, mSUCNR1-N18^1.31E/K269^7.32N (Mus musculus, UniProt Q99MT6, K269N/N18E); experiment: G protein activation BRET assay, mSUCNR1-N18E/K269N; assay type: cell-based; settings: against an EC80 concentration of succinate
T2 construct: expressed in transfected cells; host or cells: HEK-293T
T2 sequence (Q99MT6 1-317 N18E/K269N): T1 sequence (Q99MT6 1-317 N18E/G84W/K269N) with W84G
Experimental: G protein activation assays were carried out using the open-source TRUPATH platform previously described.[36]

[3] = target: T3, mSUCNR1 construct containing N18^1.31E, K269^7.32N, and G84^EL1W (Mus musculus, UniProt Q99MT6, G84W/K269N/N18E); experiment: G protein activation BRET assay, mSUCNR1-N18E/G84W/K269N; assay type: cell-based
T3 construct: expressed in transfected cells; host or cells: HEK-293T
T3 sequence (Q99MT6 1-317 N18E/G84W/K269N): T1 sequence (Q99MT6 1-317 N18E/G84W/K269N)
Experimental: G protein activation assays were carried out using the open-source TRUPATH platform previously described.[36] HEK-293T cells were transfected with Gαi1-Rluc8, Gγ8-GFP^2, Gβ3 and either human, mouse, mouse-N18E/K269N, or mouse-N18E/G84W/K269N SUCNR1 in a 1:1:1:1 plasmid mass ratio using polyethyleneimine.

hSUCNR1 [4] = target: T4, hSUCNR1 (Homo sapiens, UniProt Q9BXA5); experiment: BRET competition binding using 22 as tracer, hSUCNR1; settings: 3 μM 22, Kd = 990 nM; mean ± SEM, three experiments
T4 sequence (Q9BXA5 1-334): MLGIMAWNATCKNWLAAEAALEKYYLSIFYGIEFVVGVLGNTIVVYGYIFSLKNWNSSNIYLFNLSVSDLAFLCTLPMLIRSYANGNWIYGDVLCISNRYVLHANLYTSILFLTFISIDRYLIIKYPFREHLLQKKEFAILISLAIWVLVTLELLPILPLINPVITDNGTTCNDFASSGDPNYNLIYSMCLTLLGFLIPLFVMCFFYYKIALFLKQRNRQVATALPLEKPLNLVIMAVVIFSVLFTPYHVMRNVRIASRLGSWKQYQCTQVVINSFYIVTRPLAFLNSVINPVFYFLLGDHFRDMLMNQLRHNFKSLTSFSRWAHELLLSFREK

mSUCNR1 [5] = target: T5, mSUCNR1 (Mus musculus, UniProt Q99MT6); experiment: BRET competition binding using 22 as tracer, mSUCNR1; settings: 1 μM 22, Kd = […]; highest unlabeled ligand 30 μΜ
T5 sequence (Q99MT6 1-317): T1 sequence (Q99MT6 1-317 N18E/G84W/K269N) with E18N, W84G, N269K

hSUCNR1 [6] = target: T4, hSUCNR1; experiment: BRET competition binding using 46 as tracer, hSUCNR1; settings: […] 46, Kd = 310 nM
hmSUCNR1 [7] = target: T6, hmSUCNR1 (Mus musculus, UniProt Q99MT6, G84W/K269N/N18E); experiment: BRET competition binding using 22 as tracer, hmSUCNR1
T6 sequence (Q99MT6 1-317 N18E/G84W/K269N): T1 sequence (Q99MT6 1-317 N18E/G84W/K269N)

hmSUCNR1 [8] = target: T6, hmSUCNR1; experiment: BRET competition binding using 46 as tracer, hmSUCNR1
hSUCNR1 [9] = target: T4, hSUCNR1; experiment: cAMP assay, inhibition of succinate response at hSUCNR1; assay type: cell-based; parameters: expressed in transfected cells; host or cells: Flp-In T-REx 293; settings: inhibition of […] succinate response; mean ± SEM
mSUCNR1 [10] = target: T5, mSUCNR1; settings: transiently transfected HEK-293T cells
Nluc-mSUCNR1 = target: T7, Nluc-mSUCNR1 (Mus musculus, UniProt Q99MT6); experiment: cAMP assay, agonist potency at Nluc-mSUCNR1; settings: N-terminally Nluc-tagged receptor
T7 sequence (Q99MT6 1-317): T1 sequence (Q99MT6 1-317 N18E/G84W/K269N) with E18N, W84G, N269K

hSUCNR1 [11] = target: T4, hSUCNR1; experiment: cAMP assay, agonist potency at hSUCNR1; assay type: cell-based; parameters: expressed in transfected cells; host or cells: Flp-In T-REx 293; settings: Flp-In T-REx 293 cells, mean ± SEM, minimum three independent experiments
mSUCNR1 [12] = target: T5, mSUCNR1; experiment: cAMP assay, agonist potency at mSUCNR1; assay type: cell-based; parameters: expressed in transfected cells; host or cells: Flp-In T-REx 293; settings: Flp-In T-REx 293 cells; for cAMP mSUCNR1 pEC50: mean ± SEM, minimum three independent experiments

In the case of CN1CCN(Cc2ccc(-c3cccc(C(=O)Nc4ccccc4CC(=O)O)c3)cc2)CC1 [Compound 1, 4-((3′-((2-(Carboxymethyl)phenyl)carbamoyl)-[1,1′-biphenyl]-4-yl)methyl)-1-methylpiperazin-1-ium 2,2,2-trifluoroacetate], the IC50 [1] is reported as 0.0794 µM, the “antagonism against mSUCNR1-N18^1.31E/K269^7.32N” value [2] is reported as “no measurable antagonism” and the “antagonism at mSUCNR1 N18^1.31E, K269^7.32N, G84^EL1W mutant” value ([3]; against an EC80 concentration of succinate) is reported as “a level of antagonism similar to that with hSUCNR1”. For the same compound, the “Competion binding using 22 hSUCNR1 pKi” value (hSUCNR1 [4]) was 7.4 ± 0.1, the “Competion binding using 22 mSUCNR1 pKi” value (mSUCNR1 [5]) was 5.1 ± 0.0 and the “Competion binding using 46 hSUCNR1 pKi” value (hSUCNR1 [6]) was 7.1 ± 0.1. The Ki (hmSUCNR1 [7]) was 0.0501 µM, the Ki (hmSUCNR1 [8]) was 0.0631 µM and the “cAMP hSUCNR1 pIC50” value (hSUCNR1 [9]) was 7.07 ± 0.21.
With O=C(O)Cc1ccccc1NC(=O)c1cccc(-c2ccc(Cl)cc2)c1 [Compound 32, 2-(2-(4′-Chloro-[1,1′-biphenyl]-3-carboxamido)phenyl)acetic acid] the “Competion binding using 22 hSUCNR1 pKi” value (hSUCNR1 [4]) was 7.8 ± 0.3, the “Competion binding using 22 mSUCNR1 pKi” value (mSUCNR1 [5]) was <4.5 ^d and the “Competion binding using 46 hSUCNR1 pKi” value (hSUCNR1 [6]) was 7.6 ± 0.1. The Ki (hmSUCNR1 [7]) was 0.316 µM, the “fold lower affinity at hmSUCNR1 compared to hSUCNR1” value (hmSUCNR1 [7]; competition binding) was roughly 10 fold and the Ki (hmSUCNR1 [8]) was 0.251 µM. The “cAMP hSUCNR1 pIC50” value (hSUCNR1 [9]) was 6.31 ± 0.18.
With O=C(O)CCC(=O)O [Succinate] the “G protein activation pEC50 at mSUCNR1 N18^1.31E, K269^7.32N, G84^EL1W” value ([3]; transiently transfected HEK-293T cells) was 4.28 ± 0.09, the “G protein activation pEC50 at mSUCNR1” value (mSUCNR1 [10]) was 5.29 ± 0.12 and the “Nluc-mSUCNR1 cAMP pEC50” value (Nluc-mSUCNR1) was 5.69 ± 0.11. The “Competion binding using 22 hSUCNR1 pKi” value (hSUCNR1 [4]) was 3.7 ± 0.1, the “Competion binding using 22 mSUCNR1 pKi” value (mSUCNR1 [5]) was 3.3 ± 0.1 and the “Competion binding using 46 hSUCNR1 pKi” value (hSUCNR1 [6]) was 3.2 ± 0.1. For the same compound, the Ki (hmSUCNR1 [7]) was 1000 µM, the Ki (hmSUCNR1 [8]) was 631 µM and the “cAMP hSUCNR1 pEC50” value (hSUCNR1 [11]) was 5.04 ± 0.02. The EC50 (hSUCNR1 [11]; read-out: cAMP hSUCNR1 pEC50 (converted)) was roughly 10 µM, the Emax (mSUCNR1 [12]) was 100% and the “cAMP mSUCNR1 pEC50” value (mSUCNR1 [12]) was 5.02 ± 0.10. For the same compound, the “cAMP mSUCNR1 pEC50” value (mSUCNR1 [12]; listed as succinate) was roughly 5.0.
